# Patent publication US20230119894A1, “THERAPEUTIC OR PROPHYLACTIC METHOD FOR DIABETES USING COMBINATION MEDICINE” (Japan Tobacco Inc., priority 2019, published 2023)
# Several values for one entry are separate records, joined by “and”; a condition that tells them apart may be missing. Equal entries are not always repeated. Marks after values point to notes of the source that are not given here.
# How the values were obtained:
# [1] = tested on: Salmonella typhimurium TA98; assay: Ames test (reverse mutation test), TA98; conditions: TA98
# Method: (§1) Metabolites 1, 3, and 5 and Metabolites C to H were each tested herein. The purpose of this test is to evaluate the potential of each metabolite to induce reverse mutations in the standard strains of Salmonella typhimurium (TA98, TA1537, TA100, and TA1535) and Escherichia coli (WP2uvrA), in either the presence or absence of a rat liver metabolic activation system (S9 mix).
# (§2) The solvent used herein was dimethyl sulfoxide (DMSO, 100 μL/plate).
# (§3) The test was performed by the pre-incubation method with or without S9 mix. When the test was performed without S9 mix, sodium phosphate buffer solution (pH 7.4) was added.
# (§4) 0.5 mL of S9 mix or 0.5 mL of 0.1 mol/L sodium phosphate buffer solution (pH 7.4), and 0.1 mL of the bacterial culture solution were added to a test tube containing 0.1 mL of the negative control formulation (DMSO alone), the metabolite, or the positive control formulation. The mixtures were pre-incubated at 37° C. for 20 minutes while shaking. After the pre-incubation period, 2 mL of top agar were added and the mixtures were vortex-mixed and seeded onto plates. Two plates per treatment were used. Each plate was incubated at 37±1° C. for 48 hours or more and the revertant colonies were counted. The mean number of revertant colonies for each treatment plate was then calculated. […] Evaluation was based on mean values with no statistical comparisons being used.
# [2] = tested on: Salmonella typhimurium TA1535; assay: Ames test (reverse mutation test), TA1535
# Method: as §1, §2, §3, §4
# [3] = tested on: Salmonella typhimurium TA1537; assay: Ames test (reverse mutation test), TA1537; conditions: TA1537
# Method: as §1, §2, §3, §4
# [4] = tested on: Salmonella typhimurium TA100; assay: Ames test (reverse mutation test), TA100; conditions: TA100
# Method: as §1, §2, §3, §4
# Escherichia coli WP2uvrA = assay: Ames test (reverse mutation test), WP2uvrA; format: cell-based; conditions: WP2uvrA
smiles,measurement,setting,value
"Nc1ccc2cc3ccccc3cc2c1 [Example 2AA, 2-Aminoanthracene, reference compound]",Number of revertant colonies,"[1]; S9 mix +, 0.5 μg/plate (positive control)",289
same,Number of revertant colonies,"[2]; S9 mix +, 2.0 μg/plate (positive control)",223 and 146 and 250
same,Number of revertant colonies,"[3]; S9 mix +, 2 μg/plate (positive control)",135
"Cl.Nc1c2ccccc2nc2ccccc12.O [Example 9AA, 9-Aminoacridine hydrochloride monohydrate, reference compound]",Number of revertant colonies,"[3]; S9 mix −, 80 μg/plate (positive control)",372
CC(C)(C)Oc1cc(F)cc(-c2cc(N)nn2C(F)(F)F)c1 [Metabolite 1],Number of revertant colonies,"[4]; S9 mix +, 185 μg/plate",78*
same,Number of revertant colonies,"[4]; S9 mix +, 556 μg/plate",59*
same,Number of revertant colonies,"[4]; S9 mix +, 1667 μg/plate",50*
same,Number of revertant colonies,"[4]; S9 mix +, 5000 μg/plate",52*
same,Number of revertant colonies,"[4]; S9 mix −, 185 μg/plate",38*
same,Number of revertant colonies,"[4]; S9 mix −, 556 μg/plate",0*
same,Number of revertant colonies,"[4]; S9 mix −, 1667 μg/plate",0*
same,Number of revertant colonies,"[4]; S9 mix −, 5000 μg/plate",0*
same,Number of revertant colonies,"Escherichia coli WP2uvrA; S9 mix +, 185 μg/plate",16*
same,Number of revertant colonies,"Escherichia coli WP2uvrA; S9 mix +, 556 μg/plate",18*
same,Number of revertant colonies,"Escherichia coli WP2uvrA; S9 mix +, 1667 μg/plate",9*
same,Number of revertant colonies,"Escherichia coli WP2uvrA; S9 mix +, 5000 μg/plate",0*
same,Number of revertant colonies,"Escherichia coli WP2uvrA; S9 mix −, 185 μg/plate",15*
same,Number of revertant colonies,"Escherichia coli WP2uvrA; S9 mix −, 556 μg/plate",8*
same,Number of revertant colonies,"Escherichia coli WP2uvrA; S9 mix −, 1667 μg/plate",5*
same,Number of revertant colonies,"Escherichia coli WP2uvrA; S9 mix −, 5000 μg/plate",0*
same,Number of revertant colonies,"[1]; S9 mix +, 185 μg/plate",16*
same,Number of revertant colonies,"[1]; S9 mix +, 556 μg/plate",15*
same,Number of revertant colonies,"[1]; S9 mix +, 1667 μg/plate",13*
same,Number of revertant colonies,"[1]; S9 mix +, 5000 μg/plate",13*
same,Number of revertant colonies,"[1]; S9 mix −, 185 μg/plate",9*
same,Number of revertant colonies,"[1]; S9 mix −, 556 μg/plate",0*
same,Number of revertant colonies,"[1]; S9 mix −, 1667 μg/plate",0*
same,Number of revertant colonies,"[1]; S9 mix −, 5000 μg/plate",0*
same,Number of revertant colonies,"[2]; S9 mix +, 185 μg/plate",5*
same,Number of revertant colonies,"[2]; S9 mix +, 556 μg/plate",4*
same,Number of revertant colonies,"[2]; S9 mix +, 1667 μg/plate",4*
same,Number of revertant colonies,"[2]; S9 mix +, 5000 μg/plate",2*
same,Number of revertant colonies,"[2]; S9 mix −, 185 μg/plate",0*
same,Number of revertant colonies,"[2]; S9 mix −, 556 μg/plate",0*
same,Number of revertant colonies,"[2]; S9 mix −, 1667 μg/plate",0*
same,Number of revertant colonies,"[2]; S9 mix −, 5000 μg/plate",0*
same,Number of revertant colonies,"[3]; S9 mix +, 185 μg/plate",2*
same,Number of revertant colonies,"[3]; S9 mix +, 556 μg/plate",0*
same,Number of revertant colonies,"[3]; S9 mix +, 1667 μg/plate",0*
same,Number of revertant colonies,"[3]; S9 mix +, 5000 μg/plate",0*
same,Number of revertant colonies,"[3]; S9 mix −, 185 μg/plate",0*
same,Number of revertant colonies,"[3]; S9 mix −, 556 μg/plate",0*
same,Number of revertant colonies,"[3]; S9 mix −, 1667 μg/plate",0*
same,Number of revertant colonies,"[3]; S9 mix −, 5000 μg/plate",0*
